Earlier results as cited in patent US20150182553A1, “USE OF POLYMER D-LACTIC ACID (PDLA) TO TREAT MALARIA” (priority 2013, published 2015).

Legend:
[1] = tested on: mitochondrial respiration of L-lactate; conditions: brain and heart
[2] = metabolite of PDLA

Which results are given for `C[C@@H](O)C(=O)O` [D-lactic acid]?
effect on mitochondrial respiration of L-lactate [1]: block mitochondrial respiration of L-lactate in the brain and heart; average plasma concentration that may be related to reversible symptoms of altered mental status, dysarthria, and ataxia [2]: 7.98 mM
